Like-named read-outs stand apart in the source and are kept apart here.
Key:
Candida albicans = experiment: Tests on substrates against Candida albicans, colour reading on buffered gelose; assay type: cell-based; parameters: key to Specificity: interference with C. albicans: (a): interference with C. albicans (++++); (b): interference with C. krusei (++); (c): interference with C. tropicalis (++)
C. albicans [1] = experiment: Diagnosis from isolated colonies on gelose 2/5; assay type: cell-based, Candida albicans; settings: isolated colonies; further: key: -: none; +: weak; ++: moderate; +++: intense; ++++: very intense
C. tropicalis [2] = experiment: Diagnosis from isolated colonies on gelose 2/5; assay type: cell-based, Candida tropicalis; settings: isolated colonies
T. glabrata [3] = experiment: Diagnosis from isolated colonies on gelose 2/5; assay type: cell-based, Torulopsis glabrata; settings: isolated colonies; further: key: -: none; +: weak; ++: moderate; +++: intense; ++++: very intense
C. krusei [4] = experiment: Diagnosis from isolated colonies on gelose 2/5; assay type: cell-based, Candida krusei
Method: (§1) According to the afore-mentioned best mode of carrying out the invention, a culture medium containing the following ingredients is prepared; it is called gelose 2 below and is buffered to pH 6.0.
(§2) According to the afore-mentioned best mode of carrying out the invention, a culture medium containing the following ingredients is prepared; it is called gelose 5 below and is buffered to pH 6.0.
Several isolated strains of C. albicans, C. tropicalis, C. krusei, C. guillermondii, C. pseudotropicalis, C. parapsilosis, C. zeylanoides, T. glabrata and Trichosporon cutaneum were inoculated and incubated on the media of Examples 1 to 5. […] Part of the results obtained has been collated in Table VI below, where the TTC column relates to results of tests undertaken separately on a standard gelose medium containing TTC.
Several isolated strains of C. albicans, C. tropicalis, C. krusei, C. guillermondii and T. glabrata were inoculated and incubated on the media of Example 2 [containing either the substrate N-Ac-β-D-galactosaminide-PNP of the prior art, or the substrates H-L-PropNA.AcOH (specific for C. albicans), EM-L-Phg-L-ArgpNA.AcOH (specific for T. glabrata) and H-Gly-L-Pro-L-Arg-pNA.2AcOH (specific for C. krusei)]and of Example 5 (containing the substrate H-L-Pro-pNA.AcOH).

C. guillermondii [5] = experiment: Diagnosis from isolated colonies on gelose 2/5; assay type: cell-based, Candida guillermondii; settings: Table VI; further: key: -: none; +: weak; ++: moderate; +++: intense; ++++: very intense
C. zeylanoides [6] = experiment: Diagnosis from isolated colonies on gelose 2/5; assay type: cell-based, Candida zeylanoides; settings: Table VI; further: key: -: none; +: weak; ++: moderate; +++: intense; ++++: very intense
Tr. cutaneum [7] = experiment: Diagnosis from isolated colonies on gelose 2/5; assay type: cell-based, Trichosporon cutaneum; settings: Table VI; further: key: -: none; +: weak; ++: moderate; +++: intense; ++++: very intense
C. parapsilosis [8] = experiment: Diagnosis from isolated colonies on gelose 2/5; assay type: cell-based, Candida parapsilosis; settings: Table VI; further: key: -: none; +: weak; ++: moderate; +++: intense; ++++: very intense
C. pseudotropicalis [9] = experiment: Diagnosis from isolated colonies on gelose 2/5; assay type: cell-based, Candida pseudotropicalis; settings: Table VI; further: key: -: none; +: weak; ++: moderate; +++: intense; ++++: very intense
C. albicans [10] = experiment: Diagnosis from non-isolated colonies on gelose 2/5; assay type: cell-based, Candida albicans
T. glabrata [11] = experiment: Diagnosis from non-isolated colonies on gelose 2/5; assay type: cell-based, Torulopsis glabrata; further: key: -: none; +: weak; ++: moderate; +++: intense; ++++: very intense
C. krusei [12] = experiment: Diagnosis from non-isolated colonies on gelose 2/5; assay type: cell-based, Candida krusei
Method: as §1, §2
A mixture of several non-isolated strains of C. albicans, C. tropicalis, C. krusei, C. guillermondii, C. pseudotropicalis, C. parapsilosis, Cryptococcus neoformaas, Torulopsis glabrata and Trichosporon cutaneum was inoculated and incubated on the culture media according to Examples 1 to 5, containing the substrate N-Ac-β-D-galactosaminide-PNP of the prior art or the substrate H-Pro-pNA.AcOH according to the invention. The results, which were obtained particularly with geloses 2 and 5, are collated in Table VIII below, where the TTC column relates to results of tests undertaken separately on a standard gelose medium containing TTC.
(§3) A mixture of several non-isolated strains of C. albicans, C. tropicalis, C. krusei, C. guillermondii, C. pseudotropicalis, C. parapsilosis, C. zeylanoides, C. ciferii, C. cerevisiae, Torulopsis glabrata and Trichosporon cutaneum was inoculated and incubated on the culture media according to Example 5, containing the substrate N-Ac-β-D-galactosaminide-PNP of the prior art or the substrate H-Pro-pNA.AcOH according to the invention.

C. tropicalis [13] = experiment: Diagnosis from non-isolated colonies on gelose 2/5; assay type: cell-based, Candida tropicalis; further: key: -: none; +: weak; ++: moderate; +++: intense; ++++: very intense
C. pseudotropicalis [14] = experiment: Diagnosis from non-isolated colonies on gelose 2/5; assay type: cell-based, Candida pseudotropicalis; further: key: -: none; +: weak; ++: moderate; +++: intense; ++++: very intense
C. parapsilosis [15] = experiment: Diagnosis from non-isolated colonies on gelose 2/5; assay type: cell-based, Candida parapsilosis; further: key: -: none; +: weak; ++: moderate; +++: intense; ++++: very intense
Tr. cutaneum [16] = experiment: Diagnosis from non-isolated colonies on gelose 2/5; assay type: cell-based, Trichosporon cutaneum
Cr. neoformans = experiment: Diagnosis from non-isolated colonies on gelose 2/5; assay type: cell-based, Cryptococcus neoformans; settings: Table VIII; further: key: -: none; +: weak; ++: moderate; +++: intense; ++++: very intense
C. guillermondii [17] = experiment: Diagnosis from non-isolated colonies on gelose 2/5; assay type: cell-based, Candida guillermondii; further: key: -: none; +: weak; ++: moderate; +++: intense; ++++: very intense
C. zeylanoides [18] = experiment: Diagnosis from non-isolated colonies on gelose 5; assay type: cell-based, Candida zeylanoides; settings: Table IX, 1 strain, gelose 5, cycloheximide; further: key: -: none; +: weak; ++: moderate; +++: intense; ++++: very intense
C. ciferii = experiment: Diagnosis from non-isolated colonies on gelose 5; assay type: cell-based; settings: Table IX, 1 strain, gelose 5, cycloheximide; further: key: -: none; +: weak; ++: moderate; +++: intense; ++++: very intense
C. cerevisiae = experiment: Diagnosis from non-isolated colonies on gelose 5; assay type: cell-based
Method: as §2, §3

Candida guillermondii = experiment: Tests on substrates against Candida guillermondii; parameters: Reading at 24 h: key to the marks not given beside the values; settings: Table V
[19] = tested on: C. albicans, C. guillermondii, C. intermedia, C. lipolytica, C. lusitanica, C. parapsilosis, C. rugosa and C. zeylanoides; settings: U.S. Pat. No. 4,874,695, Table IV; cited from earlier work
[20] = tested on: N-acetyl-β-D-glucosaminidase; settings: Casal et al. 1983; Polachek et al. 1987; cited from earlier work
[21] = Table VI, gelose 5 (maltose, cycloheximide)
[22] = Table VII, gelose 5 with cycloheximide
[23] = gelose 5 (maltose, cycloheximide)
[24] = Table IX, 89 strains, gelose 5, cycloheximide
[25] = Table VIII, 13 strains, gelose 2
[26] = Table VIII, gelose 5 (maltose, cycloheximide)
[27] = Table IX, 8 strains, gelose 5, cycloheximide
[28] = Table VIII, 8 strains, gelose 2
[29] = Table IX, 1 strain, gelose 5, cycloheximide
[30] = Table IX, 2 strains, gelose 5, cycloheximide
[31] = Table VIII, 2 strains, gelose 2
[32] = Table IX, non-isolated colonies, 1 strain, gelose 5, cycloheximide

## CC(=O)O.O=C(Nc1ccc([N+](=O)[O-])cc1)[C@@H]1CCCN1 [H-L-Pro-pNA.AcOH]
Candida albicans; Table I
  Specificity: nonspecific for the strains of Candida albicans: (a)
Candida albicans; Table I, medium pH 6.0, YNB, glucose, agar, gentamycin, coloration or fluorescence
  Reading at 24 h: ++++
Candida albicans; Table V
  Specificity: interference with C. albicans: (a)
C. albicans [1]; Table VI, 10 strains, gelose 2
  Reading at t = 24 h: ++++
C. albicans [1]; [21]
  Reading at t = 24 h: ++++
C. albicans [1]; Table VII, 6 strains, gelose 2
  Reading at t = 24 h: ++++
C. albicans [1]; [22]
  Reading at t = 24 h: ++++
C. tropicalis [2]; Table VI, 4 strains, gelose 2
  Reading at t = 24 h: -
C. tropicalis [2]; [21]
  Reading at t = 24 h: -
C. tropicalis [2]; Table VII, 9 strains, gelose 2
  Reading at t = 24 h: -
C. tropicalis [2]; [22]
  Reading at t = 24 h: -
T. glabrata [3]; Table VI, 4 strains, gelose 2
  Reading at t = 24 h: -
T. glabrata [3]; [21]
  Reading at t = 24 h: -
T. glabrata [3]; Table VII, 9 strains, gelose 2
  Reading at t = 24 h: -
T. glabrata [3]; [22]
  Reading at t = 24 h: -
C. krusei [4]
  Reading at t = 24 h: -
C. guillermondii [5]; 2 strains, gelose 2
  Reading at t = 24 h: +++
C. guillermondii [5]; [23]
  Reading at t = 24 h: -
C. zeylanoides [6]; 1 strain, gelose 2
  Reading at t = 24 h: ++
C. zeylanoides [6]; [23]
  Reading at t = 24 h: -
Tr. cutaneum [7]; 1 strain, gelose 2
  Reading at t = 24 h: +
Tr. cutaneum [7]; [23]
  Reading at t = 24 h: -
C. parapsilosis [8]; 5 strains, gelose 2
  Reading at t = 24 h: +++
C. parapsilosis [8]; [23]
  Reading at t = 24 h: -
C. pseudotropicalis [9]; 2 strains, gelose 2
  Reading at t = 24 h: -
C. pseudotropicalis [9]; [23]
  Reading at t = 24 h: -
C. albicans [10]; [24]
  Reading at t = 24 h: ++++
C. albicans [10]; [25]
  Reading at t = 24 h: ++++
C. albicans [10]; [26]
  Reading at t = 24 h: +++
T. glabrata [11]; [27]
  Reading at t = 24 h: -
T. glabrata [11]; [28]
  Reading at t = 24 h: -
T. glabrata [11]; [26]
  Reading at t = 24 h: -
C. krusei [12]
  Reading at t = 24 h: -
C. tropicalis [13]; [29]
  Reading at t = 24 h: -
C. tropicalis [13]; Table VIII, 1 strain, gelose 2
  Reading at t = 24 h: -
C. tropicalis [13]; [26]
  Reading at t = 24 h: -
C. pseudotropicalis [14]; [30]
  Reading at t = 24 h: -
C. pseudotropicalis [14]; Table VIII, 1 strain, gelose 2
  Reading at t = 24 h: -
C. pseudotropicalis [14]; [26]
  Reading at t = 24 h: -
C. parapsilosis [15]; [29]
  Reading at t = 24 h: -
C. parapsilosis [15]; [31]
  Reading at t = 24 h: +++
C. parapsilosis [15]; [26]
  Reading at t = 24 h: -
Tr. cutaneum [16]; [30]
  Reading at t = 24 h: -
Tr. cutaneum [16]; [31]
  Reading at t = 24 h: ++
Tr. cutaneum [16]; [26]
  Reading at t = 24 h: -
Cr. neoformans; 1 strain, gelose 2
  Reading at t = 24 h: -
Cr. neoformans; [23]
  Reading at t = 24 h: -
C. guillermondii [17]; [29]
  Reading at t = 24 h: -
C. guillermondii [17]; Table VIII, 1 strain, gelose 2
  Reading at t = 24 h: +++
C. guillermondii [17]; [26]
  Reading at t = 24 h: -
C. zeylanoides [18]
  Reading at t = 24 h: -
C. ciferii
  Reading at t = 24 h: -
C. cerevisiae
  Reading at t = 24 h: -
Candida guillermondii
  Reading at 24 h: ++++

## O=C(Nc1ccc([N+](=O)[O-])cc1)[C@@H]1CCCN1 [H-L-Pro-pNA]
[19]
  sensitivity towards strains of Candida: sensitive towards several strains of Candida

## CC(=O)N[C@H]1[C@H](Oc2ccc([N+](=O)[O-])cc2)O[C@H](CO)[C@H](O)[C@@H]1O [NAc-D-galactosaminide-PNP, N-Ac-β-D-galactosaminide-PNP, reference compound]
C. albicans [1]; Table VI, 10 strains, gelose 2
  Reading at t = 24 h: ++++
C. albicans [1]; Table VII, 6 strains, gelose 2
  Reading at t = 24 h: +++
C. tropicalis [2]; Table VI, 4 strains, gelose 2
  Reading at t = 24 h: 3 gave the result - and 1 the result ++
C. tropicalis [2]; Table VII, 9 strains, gelose 2
  Reading at t = 24 h: positive (++) for only 1 of the 9 strains tested and negative
T. glabrata [3]; Table VI, 4 strains, gelose 2
  Reading at t = 24 h: -
T. glabrata [3]; Table VII, 9 strains, gelose 2
  Reading at t = 24 h: -
C. krusei [4]; Table VI, isolated colonies, 4 strains, gelose 2
  Reading at t = 24 h: -
C. krusei [4]; Table VII, isolated colonies, 6 strains, gelose 2
  Reading at t = 24 h: -
C. guillermondii [5]; 2 strains, gelose 2
  Reading at t = 24 h: -
C. zeylanoides [6]; 1 strain, gelose 2
  Reading at t = 24 h: -
Tr. cutaneum [7]; 1 strain, gelose 2
  Reading at t = 24 h: ++
C. parapsilosis [8]; 5 strains, gelose 2
  Reading at t = 24 h: -
C. pseudotropicalis [9]; 2 strains, gelose 2
  Reading at t = 24 h: -
C. albicans [10]; [24]
  Reading at t = 24 h: ++++ and negative for 2 out of 89 strains
C. albicans [10]; [25]
  Reading at t = 24 h: ++++
T. glabrata [11]; [27]
  Reading at t = 24 h: -
T. glabrata [11]; [28]
  Reading at t = 24 h: -
C. krusei [12]; [32]
  Reading at t = 24 h: -
C. krusei [12]; Table VIII, non-isolated colonies, 6 strains, gelose 2
  Reading at t = 24 h: -
C. tropicalis [13]; [29]
  Reading at t = 24 h: -
C. tropicalis [13]; Table VIII, 1 strain, gelose 2
  Reading at t = 24 h: -
C. pseudotropicalis [14]; [30]
  Reading at t = 24 h: -
C. pseudotropicalis [14]; Table VIII, 1 strain, gelose 2
  Reading at t = 24 h: -
C. parapsilosis [15]; [29]
  Reading at t = 24 h: -
C. parapsilosis [15]; [31]
  Reading at t = 24 h: -
Tr. cutaneum [16]; [30]
  Reading at t = 24 h: -
Tr. cutaneum [16]; [31]
  Reading at t = 24 h: - result for 1 strain and +++ result for the other strain
Cr. neoformans; 1 strain, gelose 2
  Reading at t = 24 h: -
C. guillermondii [17]; [29]
  Reading at t = 24 h: -
C. guillermondii [17]; Table VIII, 1 strain, gelose 2
  Reading at t = 24 h: -
C. zeylanoides [18]
  Reading at t = 24 h: -
C. ciferii
  Reading at t = 24 h: -
C. cerevisiae; [32]
  Reading at t = 24 h: -

## CC(=O)N[C@H]1[C@H](Oc2ccc3ccccc3c2)O[C@H](CO)[C@@H](O)[C@@H]1O [β-naphthyl-N-acetyl-β-D-glucosaminide]
[20]
  reaction with isolated strains: positive reaction

Source: US5449612A, “Process for identifying candida by means of chromogenic substances” (Serbio, priority 1990, dated 1995)
